The values below come from publication PMC8757610, “Design, synthesis, and biological evaluation of arylmethylpiperidines as Kv1.5 potassium channel inhibitors” (Journal of Enzyme Inhibition and Medicinal Chemistry, 2022).

For one data set, the system named is Kv1.5. The note with it: in Figure 2, no reference given, cited from earlier work.
A further data set concerns the target hKv1.5 potassium channel (Homo sapiens, UniProt P22460). Nature of the data set: Whole-cell patch clamp assay on HEK 293 cells stably expressing hKv1.5. The following applies: hKv1.5 IC50, whole-cell patch clamp, HEK 293 cells expressing hKv1.5, 25 °C, mean ± SD.
Data set [1] has as its system SD rats. Nature of the data set: CaCl2-ACh induced AF model. It counts as in vivo, rat.
The subject of the next data set is guinea pigs. Nature of the data set: Preliminary safety evaluation by 12-lead electrocardiogram. It counts as in vivo.
For data set [2], the system named is SD rats. The data set is classed as in vivo, rat.
Data set [3] can be described thus: Single-dose pharmacokinetics study. It counts as in vivo. The following applies: beagle dogs, mean ± SD, n = 6.
Setting [4] is: cumulative i.v. 3 × 10^−7 to 3 × 10^−5 mol/kg.
The mark [5] stands for this setting: both sexes, beagle, dog, plasma, iv, 1 mg/kg, i.v. 1.00 mg/kg.

Molecules are shown by their SMILES. Counter-ions that a name gives are not always drawn. Like-named read-outs stand apart in the source and are kept apart here.

hKv1.5 potassium channel, sequence (P22460 whole entry): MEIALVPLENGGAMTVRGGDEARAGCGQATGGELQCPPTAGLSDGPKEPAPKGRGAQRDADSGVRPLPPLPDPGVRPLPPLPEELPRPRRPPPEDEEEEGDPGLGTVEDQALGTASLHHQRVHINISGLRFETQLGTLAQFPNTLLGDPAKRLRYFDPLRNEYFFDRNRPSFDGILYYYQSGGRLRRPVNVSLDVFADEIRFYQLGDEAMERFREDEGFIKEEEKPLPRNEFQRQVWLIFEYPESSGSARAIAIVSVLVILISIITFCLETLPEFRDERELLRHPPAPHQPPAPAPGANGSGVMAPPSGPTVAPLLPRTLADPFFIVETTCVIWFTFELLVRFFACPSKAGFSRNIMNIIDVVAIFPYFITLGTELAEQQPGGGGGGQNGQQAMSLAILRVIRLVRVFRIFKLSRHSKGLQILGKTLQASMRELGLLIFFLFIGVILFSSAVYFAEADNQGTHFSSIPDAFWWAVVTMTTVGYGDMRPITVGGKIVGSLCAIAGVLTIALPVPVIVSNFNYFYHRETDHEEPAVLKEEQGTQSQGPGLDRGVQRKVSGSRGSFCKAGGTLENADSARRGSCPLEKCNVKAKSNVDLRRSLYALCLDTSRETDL

The IC50 is the midpoint of a concentration-inhibition curve. As to `COc1ccc(CC(=O)NCc2ccccc2-c2ccccc2C(=O)NCCc2cccnc2)cc1` [AVE-0118], the IC50 with Kv1.5 (known Kv1.5 inhibitors) is 1100 nM.
`COc1ccc(NC(=O)C2CCN(Cc3ccccc3)CC2)cc1` [DDO-02001, 1-benzyl-N-(4-methoxyphenyl) piperidine-4-carboxamide] displayed an IC50 at hKv1.5 potassium channel of 17.7 µM.
The melting point is the temperature, or range, at which the solid turns liquid. Turning to `COc1ccc(NC(=O)C2CCN(Cc3nc4ccccc4o3)CC2)cc1` [DDO-02002, 1-(benzo[d]oxazol-2-ylmethyl)-N-(4-methoxyphenyl) piperidine-4-carboxamide], the melting point fell in the range of 190 to 194 °C. This compound also displayed an IC50 at hKv1.5 potassium channel of 8.96 ± 1.15 µM.
As to `Cl.Cl.c1ccc(CNC2CCN(Cc3nc4ccccc4o3)CC2)cc1` [DDO-02004, 1-(benzo[d]oxazol-2-ylmethyl)-N-benzylpiperidin-4-amine dihydrochloride], the melting point is > 250 °C. At hKv1.5 potassium channel, the IC50 is 0.95 ± 0.13 µM.
As usually defined, the Cmax is the maximum level reached in the sampled fluid or tissue. In general, clearance refers to the volume of plasma or blood freed of the substance per unit of time. What is called half-life is the time needed for the level to fall by half in the phase considered. Usually AUC(0-t) stands for the area under the concentration-time curve up to a stated or last time point. As to `COc1ccc(CNC2CCN(Cc3nc4ccccc4o3)CC2)cc1.Cl.Cl` [DDO-02005, 1-(benzo[d]oxazol-2-ylmethyl)-N-(4-methoxybenzyl)piperidin-4-amine dihydrochloride], in the data set on SD rats [1] (AF rats, 2.5 mg/kg i.p.), the “atrial ERP (AERP)” value was “increased to normal level” and the “ventricle ERP (VERP)” value is “increased to normal level”. Also, the “duration of AF” value with SD rats [1] (rats, 0.625, 1.25, 2.5 mg/kg i.p., Day 4 to Day 7) is reported as “shortened significantly”. Further, the “AF therapeutic effect compared with dronedarone” value in the data set on SD rats [1] (rats, dronedarone 1.25 mg/kg i.p. as positive control) is reported as “better than that of dronedarone”. Moreover, the “overall preliminary safety compared with Azimilide” value with guinea pigs (12-lead electrocardiogram) was “safer than Azimilide”. Further, in the data set with guinea pigs (setting [4]), the “effect on QT dispersion (QTd), compared with Azimilide” value is “less effect”; the “effect on QTcd, compared with Azimilide” value is “less effect”; the “heart rate of guinea pigs” value was “slowed down obviously”; the “heart rate, compared with Azimilide” value is listed as “no statistically significant differences”. Moreover, in the data set on guinea pigs (setting [4]), the “prolonging QT interval, compared with Azimilide” value is reported as “no statistically significant differences” and the “prolonging QTc interval, compared with Azimilide” value was “no statistically significant differences”. The “increase of aconitine required to cause arrhythmia versus model group” value (“increase of aconitine required” for short) with SD rats [2] (0.1 mg/kg i.v.) is recorded as 2%. In the data set on SD rats [2] (1 mg/kg i.v.), the “increase of aconitine required” value is 53%. Moreover, the “increase of aconitine required” value with SD rats [2] (3 mg/kg i.v.) came to 56%. Further, in the data set with SD rats [2] (9 mg/kg i.v.), the “increase of aconitine required” value turned out to be 60%. At hKv1.5 potassium channel, this compound returned an IC50 of 0.72 ± 0.08 µM. The compound further came in with a CL in data set [3] (i.v. 1.00 mg/kg, 1 mg/kg) of 5.83 ± 1.44 L/h/kg. The CL in data set [3] (p.o. 1.25 mg/kg) turned out to be 36.51 ± 2.54 L/h/kg. Further, in data set [3] (p.o. 1.25 mg/kg, 1.25 mg/kg), the maximum concentration (Cmax) stood at 1.27 ± 0.40 ng/mL and the t1/2 amounted to 6.25 ± 2.40 h. In data set [3] (setting [5]), the clearance was 97.2 mL/min/kg and the half-life was 194 ± 64.2 min. The maximum concentration (Cmax) in data set [3] (both sexes, beagle, dog, plasma, iv, 1 mg/kg, i.v. 1.00 mg/kg, read-out: Cmax) is 90.2 ± 28.8 ng/mL. The same compound gave a half-life in data set [3] (both sexes, beagle, dog, plasma, po, 1.25 mg/kg, p.o. 1.25 mg/kg) of 375 min. Besides, the Cmax in data set [3] (both sexes, beagle, dog, plasma, po, 1.25 mg/kg, p.o. 1.25 mg/kg, read-out: Cmax) amounted to 1.27 ng/mL. In data set [3] (both sexes, dog, plasma, iv, i.v. 1.00 mg/kg), the AUC(0-t) worked out at 178 ± 39.3 ng·h/mL. Besides, the AUC(0-t) in data set [3] (both sexes, dog, plasma, po, p.o. 1.25 mg/kg) worked out at 4.41 ± 0.69 ng·h/mL.
For the compound `Fc1ccc(CNC2CCN(Cc3nc4ccccc4o3)CC2)cc1` [DDO-02006, 1-(benzo[d]oxazol-2-ylmethyl)-N-(4-fluorobenzyl) piperidin-4-amine dihydrochloride], half-maximal inhibition at hKv1.5 potassium channel (IC50) was put at 3.24 ± 0.29 µM.
`COc1ccccc1CNC1CCN(Cc2nc3ccccc3o2)CC1` [DDO-02007, 1-(benzo[d]oxazol-2-ylmethyl)-N-(2-methoxybenzyl)piperidin-4-amine dihydrochloride]: the IC50 against hKv1.5 potassium channel was > 20 µM.
The same measure, in the same setting: with `Cc1ccc(CNC2CCN(Cc3nc4ccccc4o3)CC2)cc1` [DDO-02008, 1-(benzo[d]oxazol-2-ylmethyl)-N-(4-methylbenzyl)piperidin-4-amine dihydrochloride] the figure was > 20 µM; with `c1ccc(CCNC2CCN(Cc3nc4ccccc4o3)CC2)cc1` [DDO-02009, 1-(benzo[d]oxazol-2-ylmethyl)-N-phenethylpiperidin-4-amine hydrochloride], > 20 µM.
With `CS(=O)(=O)Nc1cccc([C@H](c2ccc(F)cc2)C(c2cccnc2)c2cccnc2)n1` [MK-0448], the half-inhibitory concentration (IC50) with Kv1.5 (known Kv1.5 inhibitor) was 10.8 nM.
Take `Cc1ccc(S(=O)(=O)Nc2ccccc2C(=O)N(Cc2ccccc2)Cc2cccnc2)cc1` [S-0100176]: in the data set on Kv1.5 (known Kv1.5 inhibitors), the 50% inhibitory concentration (IC50) was 700 nM.
With `COc1ccc(CCO[C@@H]2CCCC[C@H]2N2CC[C@@H](O)C2)cc1OC` [Vernakalant hydrochloride], the IC50 in the data set with Kv1.5 (known Kv1.5 inhibitors) was 13000 nM.
